The record followed here is US8163756B2 (priority 2004, dated 2012).

pIC50: −log10 of the molar value. Structures can show the parent of a compound that is named as a salt. Where two headings read alike, the source gives them in different places.

Assay type in all cases: biochemical
One assay concerns the target T1, Abl kinase (Homo sapiens, UniProt P00519).
T1 sequence (P00519 229-512): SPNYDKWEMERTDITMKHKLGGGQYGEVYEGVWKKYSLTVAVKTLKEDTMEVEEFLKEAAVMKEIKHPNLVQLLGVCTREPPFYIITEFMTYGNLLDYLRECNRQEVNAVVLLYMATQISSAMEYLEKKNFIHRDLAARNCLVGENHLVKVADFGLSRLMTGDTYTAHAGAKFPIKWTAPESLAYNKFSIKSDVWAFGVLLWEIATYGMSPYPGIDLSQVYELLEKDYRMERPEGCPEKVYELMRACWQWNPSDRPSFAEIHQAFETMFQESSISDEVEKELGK
In words: Abl kinase assay A1 (pyruvate kinase/lactate dehydrogenase coupled, spectrophotometric). As to the method:
(§1) IC50 values were calculated from a series of percent inhibition values determined at a range of inhibitor concentrations using software routines as implemented in the GraphPad Prism software package.

The target in a further assay is KDR kinase (Homo sapiens, UniProt P35968, DEL940-989/E990V). Put plainly: KDR kinase assay K1 (pyruvate kinase/lactate dehydrogenase coupled, spectrophotometric). The procedure: as §1
KDR kinase, sequence (P35968 with tags, fused parts or gaps DEL940-989/E990V): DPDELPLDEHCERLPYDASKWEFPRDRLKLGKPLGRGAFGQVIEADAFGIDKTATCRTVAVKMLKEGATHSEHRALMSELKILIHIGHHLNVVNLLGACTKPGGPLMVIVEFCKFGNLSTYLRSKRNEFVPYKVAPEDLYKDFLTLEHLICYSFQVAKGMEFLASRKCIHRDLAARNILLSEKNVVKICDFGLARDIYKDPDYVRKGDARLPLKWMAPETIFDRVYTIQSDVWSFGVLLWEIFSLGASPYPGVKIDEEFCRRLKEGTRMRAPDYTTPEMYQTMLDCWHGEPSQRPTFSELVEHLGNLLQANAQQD
A further assay has as its target B-Raf(V599E) kinase (Homo sapiens, UniProt P15056, V600E). In words: B-Raf(V599E) kinase assay B1 (construct 1, MEK1 substrate, coupled spectrophotometric). As to the method:
The test compounds were incubated with the reaction mixtureat 30° C. for 2 h. […] The reaction rate was calculated using the […] time frame. […] IC50 values were calculated from a series of percent inhibition values determined at a range of inhibitor concentrations using software routines as implemented in the GraphPad Prism software package.

Assay [1] addresses phosphorylated p-38-alpha kinase (Homo sapiens, UniProt Q16539). In words: P-38 alpha kinase assay P1 (coupled spectrophotometric, 2 h pre-incubation).
Where [2] appears, read: Method A1, read-out: Abl Data (IC50).
Setting [3] is: Method K1, read-out: KDR Data (IC50).
The mark [4] stands for this setting: method P1 (2 h pre-incubation), read-out: P-38 Data.

B-Raf(V599E) kinase, sequence (P15056 with tags, fused parts or gaps V600E): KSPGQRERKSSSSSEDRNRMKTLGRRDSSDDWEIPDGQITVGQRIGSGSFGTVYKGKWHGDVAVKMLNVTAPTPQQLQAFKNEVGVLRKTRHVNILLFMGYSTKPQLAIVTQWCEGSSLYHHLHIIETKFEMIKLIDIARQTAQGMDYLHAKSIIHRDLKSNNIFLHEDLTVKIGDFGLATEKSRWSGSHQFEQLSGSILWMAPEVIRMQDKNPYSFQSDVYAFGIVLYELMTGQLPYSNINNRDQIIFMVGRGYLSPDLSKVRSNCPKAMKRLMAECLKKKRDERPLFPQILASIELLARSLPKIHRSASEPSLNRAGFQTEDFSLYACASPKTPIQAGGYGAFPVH
phosphorylated p-38-alpha kinase, sequence (Q16539 1-360 isoform Q16539-2): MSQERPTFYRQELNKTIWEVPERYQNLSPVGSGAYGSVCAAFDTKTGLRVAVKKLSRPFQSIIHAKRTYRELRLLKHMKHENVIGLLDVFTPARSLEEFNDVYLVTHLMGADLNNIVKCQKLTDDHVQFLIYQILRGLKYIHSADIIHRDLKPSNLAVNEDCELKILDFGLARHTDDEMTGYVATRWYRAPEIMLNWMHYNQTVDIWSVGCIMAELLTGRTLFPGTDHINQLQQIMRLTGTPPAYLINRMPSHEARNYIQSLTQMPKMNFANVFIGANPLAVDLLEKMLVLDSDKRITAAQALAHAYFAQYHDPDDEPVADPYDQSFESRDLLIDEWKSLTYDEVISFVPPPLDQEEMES

Turning to `CC(C)(C)c1cc(NC(=O)Nc2cccc(Cl)c2Cl)n(-c2ccc3c(c2)CN(S(C)(=O)=O)CC3)n1` [Example 127, 1-{3-t-butyl-1-[2-(methanesulfonyl)-1,2,3,4-tetrahydroisoquinolin-7-yl]-1H-pyrazol-5-yl}-3-(2,3-dichlorophenyl)urea], the pIC50 is 6.66 at Abl kinase (setting [2]), 6.66 at KDR kinase (setting [3]), 8.47 against B-Raf(V599E) kinase and 7.89 in assay [1] (setting [4]).

For the compound `CC(C)(C)c1cc(NC(=O)Nc2cccc(Cl)c2Cl)n(-c2ccc3c(c2)CCCN3)n1` [Example 135, 1-[3-t-butyl-1-(1,2,3,4-tetrahydroquinolin-6-yl)-1H-pyrazol-5-yl]-3-(2,3-dichlorophenyl)urea hydrochloride], the pIC50 is 6.08 against Abl kinase, 6.57 against KDR kinase, 8.35 against B-Raf(V599E) kinase and 7.36 in assay [1].

Take `CC(C)(C)c1cc(NC(=O)Nc2cccc(Cl)c2Cl)n(-c2ccc(CCO)cc2)n1` [Example 45, 1-{3-t-butyl-1-[4-(2-hydroxyethyl)-phenyl]-1H-pyrazol-5-yl}-3-(2,3-dichlorophenyl)urea]: the pIC50 is 6.11 at Abl kinase (setting [2]), 6.44 at KDR kinase (setting [3]), 8.21 against B-Raf(V599E) kinase and 8.30 in assay [1] (setting [4]).

As for `CC(C)(C)c1cc(NC(=O)Nc2cccc(Cl)c2Cl)n(-c2cccc(C(N)=O)c2)n1` [Example 13, 1-[3-t-butyl-1-(3-carbamoylphenyl)-1H-pyrazol-5-yl]-3-(2,3-dichlorophenyl)urea], the pIC50 on Abl kinase (setting [2]) is 5.70; on KDR kinase (setting [3]), 6.44; at B-Raf(V599E) kinase, 8.28; in assay [1] (setting [4]), 7.35.

In the case of `CC(C)(C)c1cc(NC(=O)Nc2cccc(Cl)c2Cl)n(-c2cc(CO)c3ccccc3c2)n1` [Example 60, 1-[5-t-butyl-2-(4-hydroxymethylnaphthalen-2-yl)-2H-pyrazol-3-yl]-3-(2,3-dichloro-phenyl)urea], the pIC50 on Abl kinase (setting [2]) is 7.20; at KDR kinase (setting [3]), 7.21; on B-Raf(V599E) kinase, 8.59; in assay [1] (setting [4]), 7.74.

For the compound `CC(C)(C)c1cc(NC(=O)Nc2cccc(Cl)c2Cl)n(-c2ccc3c(c2)CCC(=O)N3)n1` [Example 131, 1-[3-t-butyl-1-(2-oxo-1,2,3,4-tetrahydroquinolin-6-yl)-1H-pyrazol-5-yl]-3-(2,3-dichlorophenyl)urea], the pIC50 was 6.55 at Abl kinase (setting [2]), 7.11 on KDR kinase (setting [3]), 8.72 on B-Raf(V599E) kinase and 7.48 in assay [1] (setting [4]).

For the compound `CC(C)(C)c1cc(NC(=O)Nc2cccc(Cl)c2Cl)n(-c2ccc3c(c2)CCNC(=O)C3)n1` [Example 165, 1-(3-t-butyl-1-(2-oxo-2,3,4,5-tetrahydro-1H-benzo[d]azepin-7-yl)-1H-pyrazol-5-yl)-3-(2,3-dichlorophenyl)urea], the pIC50 was 6.70 on Abl kinase (setting [2]), 6.68 at KDR kinase (setting [3]), 8.62 on B-Raf(V599E) kinase and 8.15 in assay [1] (setting [4]).

Turning to `CC(C)(C)c1cc(NC(=O)Nc2cccc(Cl)c2Cl)n(-c2cc(CN)c3ccccc3c2)n1` [Example 69, 1-[1-(4-(aminomethyl)naphthalen-2-yl)-3-t-butyl-1H-pyrazol-5-yl]-3-(2,3-dichlorophenyl)urea], the pIC50 at Abl kinase (setting [2]) was 6.85; at KDR kinase (setting [3]) it was 6.40; against B-Raf(V599E) kinase it was 8.38; in assay [1] (setting [4]), 6.96.

With `CC(C)(C)c1cc(NC(=O)Nc2cccc(Cl)c2Cl)n(-c2ccc3c(c2)C(N)=NCC3)n1` [Example 129, 1-[1-(1-amino-3,4-dihydroisoquinolin-7-yl)-3-t-butyl-1H-pyrazol-5-yl]-3-(2,3-dichlorophenyl)urea], the pIC50 at Abl kinase (setting [2]) is 6.57; at KDR kinase (setting [3]) it was 6.30; on B-Raf(V599E) kinase it was 8.38; in assay [1] (setting [4]), 6.89.

With `CC(C)(C)c1cc(NC(=O)Nc2cccc(Cl)c2Cl)n(-c2cccc(CCO)c2)n1` [Example 24, 1-{3-t-butyl-1-[3-(2-hydroxyethyl)phenyl]-1H-pyrazol-5-yl}-3-(2,3-dichlorophenyl)urea], the pIC50 on Abl kinase (setting [2]) was 6.08; on KDR kinase (setting [3]), 6.42; at B-Raf(V599E) kinase, 8.64; in assay [1] (setting [4]), 7.96.

As to `CC(C)(C)c1cc(NC(=O)Nc2cccc(Cl)c2Cl)n(-c2ccc3c(c2)C(=O)NCC3)n1` [Example 122, 1-[3-t-butyl-1-(1-oxo-1,2,3,4-tetrahydroisoquinolin-7-yl)-1H-pyrazol-5-yl]-3-(2,3-di-chlorophenyl)urea], the pIC50 on Abl kinase (setting [2]) is 5.55; on KDR kinase (setting [3]), 5.85; against B-Raf(V599E) kinase, 7.96; in assay [1] (setting [4]) it was 6.89.

Turning to `CC(=O)N1CCc2ccc(-n3nc(C(C)(C)C)cc3NC(=O)Nc3cccc(Cl)c3Cl)cc2C1` [Example 126, 1-[1-(2-acetyl-1,2,3,4-tetrahydroisoquinolin-7-yl)-3-t-butyl-1H-pyrazol-5-yl]-3-(2,3-dichlorophenyl)urea], the pIC50 at Abl kinase (setting [2]) is 6.36; on KDR kinase (setting [3]), 6.68; on B-Raf(V599E) kinase, 8.19; in assay [1] (setting [4]) it was 8.00.

As for `CC(C)(C)c1cc(NC(=O)Nc2cccc(Cl)c2Cl)n(-c2ccc3c(c2)CCNCC3)n1` [Example 166, 1-(3-t-butyl-1-(2,3,4,5-tetrahydro-1H-benzo[d]azepin-7-yl)-1 H-pyrazol-5-yl)-3-(2,3-dichlorophenyl)urea], the pIC50 was 6.64 on Abl kinase (setting [2]), 6.68 on KDR kinase (setting [3]), 8.24 against B-Raf(V599E) kinase and 7.21 in assay [1] (setting [4]).

In the case of `CC(C)(C)c1cc(NC(=O)Nc2cccc(Cl)c2Cl)n(-c2ccc3c(c2)CCCN3C(=N)N)n1` [Example 136, 1-[3-t-butyl-1-(1-amidino-1,2,3,4-tetrahydroquinolin-6-yl]-1H-pyrazol-5-yl)-3-(2,3-dichlorophenyl)urea], the pIC50 was 7.00 on Abl kinase (setting [2]), 7.54 at KDR kinase (setting [3]), 8.31 at B-Raf(V599E) kinase and 6.89 in assay [1] (setting [4]).

Consider `CC(C)(C)c1cc(NC(=O)Nc2cccc(Cl)c2Cl)n(-c2cc(CNC(=O)NS(C)(=O)=O)c3ccccc3c2)n1` [Example 75, 1-{3-t-butyl-1-[1-(methanesulfonylureidoamidomethyl)naphthalen-3-yl]-1H-pyrazol-5-yl}-3-(2,3-dichlorophenyl-1-yl)urea], for which the pIC50 was 7.20 on Abl kinase (setting [2]), 6.85 at KDR kinase (setting [3]), 8.38 on B-Raf(V599E) kinase and 8.22 in assay [1] (setting [4]).

Turning to `CC(C)(C)c1cc(NC(=O)Nc2cccc(Cl)c2Cl)n(-c2cccc(C(=N)N)c2)n1` [Example 44, 1-[3-t-butyl-1-(3-carbamimidoylphenyl)-1H-pyrazol-5-yl]-3-(2,3-dichlorophenyl)urea], the pIC50 at Abl kinase (setting [2]) was 6.36; at KDR kinase (setting [3]), 5.62; at B-Raf(V599E) kinase it was 8.40; in assay [1] (setting [4]) it was 7.15.

In the case of `CC(C)(C)c1cc(NC(=O)Nc2cc(F)cc(F)c2F)n(-c2ccc3c(c2)CCN3S(C)(=O)=O)n1` [Example 109, 1-(3-t-butyl-1-(1-(methylsulfonyl)indolin-5-yl)-1H-pyrazol-5-yl)-3-(2,3,5-trifluorophenyl)urea], the pIC50 at Abl kinase (setting [2]) is 6.85; at KDR kinase (setting [3]) it was 7.42; against B-Raf(V599E) kinase, 8.57.

Turning to `CC(C)(C)c1cc(NC(=O)Nc2cccc(Cl)c2Cl)n(-c2cccc(C(C)(C)O)c2)n1` [Example 2, 1-{3-t-butyl-1-[3-(2-hydroxypropan-2-yl)phenyl]-1H-pyrazol-5-yl}-3-(2,3-dichlorophenyl)urea], the pIC50 at Abl kinase (setting [2]) was 5.70; at KDR kinase (setting [3]), 6.34; against B-Raf(V599E) kinase, 7.72.
